Measured values published in US20240219374A1, “A Triple Co-Culture System for Drug Screening of Patient-Derived Cancer Cells and Methods of Use” (OncoPrecision Corporation, priority 2021, published 2024).

Key:
[1] = system: PDC cells from patient OP #23 (acute myeloid leukemia); experiment: Triple co-culture drug test (DART), flow cytometry: PDC cells of patient OP #23; settings: for cytotoxic effect on the PDC cells: Example 8, FIG. 9A, 6 days, Panobinostat 5 nM, Cytarabine 22 nM + Daunorubicine 41 nM, Venetoclax 1.6 μM, PDC:SC:TC 10:1:1
[2] = system: TC cells (human bone marrow stroma cell line HS-5, Cayenne-RFP); experiment: Triple co-culture drug test (DART), flow cytometry: Tox Control cells; type: cell-based; settings: for cytotoxic effect on the TC cells: Example 8, FIG. 9A, Panobinostat 5 nM, Cytarabine 22 nM + Daunorubicine 41 nM, Venetoclax 1.6 μM
Description: DMSO treated wells were used as controls.

PDCs from an AML patient = experiment: Magnetically printed 3D tumoroid triple co-culture, flow cytometry: PDCs; type: cell-based, human; settings: 3D tumoroids; Cytarabine 200 nM; 6 days; 10,000 PDC, 3,000 SC, 8,000 TC cells
Description: (§1) The 3D tumoroid was formed with or without extracellular matrix (ECM) embedded in culture media. […] On day 1, when the tumoroids were in a fully compact 3D configuration, the multiwell plates containing the tumoroid replicas (1 per well) were subjected to a matrix of treatments, including mono-drugs and combinations.
(§2) Magnetically printed 3D patient-micro-avatars (PMAs) using PDCs from an AML patient were prepared. PDCs from a bone marrow aspirate were processed by Ficoll-Paque to isolate the PBMC fraction, which was printed into 3D tumoroids in co-culture with SC cells and TC cells. Particularly, 10,000 PDC cells were mixed with 3,000 SC cells, and 8,000 TC cells.
(§3) 3D tumoroids so formed were treated for 6 days with vehicle or Cytarabine at 200 nM. […] At the end of the treatment, tumoroids were analyzed first by florescence microscopy (left panel of FIG. 12B). The tumoroids were subsequentially disaggregated mechanically and analyzed by flow cytometry to quantify the surviving fraction of PDCs, SC cells, and TC cells (right panel of FIG. 12B).

TC cells = experiment: Magnetically printed 3D tumoroid triple co-culture, flow cytometry: TC cells; type: cell-based; settings: 3D tumoroids; Cytarabine 200 nM; 6 days
Description: as §1, §2, §3

SC cells = experiment: Magnetically printed 3D tumoroid triple co-culture, flow cytometry: SC cells; type: cell-based; settings: 3D tumoroids; Cytarabine 200 nM; 6 days
Description: as §1, §2, §3

Structure (SMILES)	cytotoxic effect on the PDC cells [1]	cytotoxic effect on the TC cells ([2]; 6 days)	cytotoxic effects on the PDC cells ([1]; Example 12, FIG. 11B, top drugs alone or combined at the lowest dose, standard care in parallel)	cytotoxic activity on the TC cells ([2]; Example 9, FIG. 9C, four doses, 6 days)	effects on the TC cells ([2]; Example 12, FIG. 11B)	cytotoxic effects on the cancer cells (PDCs) (PDCs from an AML patient)	cytotoxicity on the TC cells (TC cells)	cytotoxic effects on the SC cells (SC cells)
Cc1[nH]c2ccccc2c1CCNCc1ccc(/C=C/C(=O)NO)cc1 [Panobinostat]	neither the PDC cells nor the TC cells showed a response	neither the PDC cells nor the TC cells showed a response	–	–	–	–	–	–
CC1(C)CCC(CN2CCN(c3ccc(C(=O)NS(=O)(=O)c4ccc(NCC5CCOCC5)c([N+](=O)[O-])c4)c(Oc4cnc5[nH]ccc5c4)c3)CC2)=C(c2ccc(Cl)cc2)C1 [Venetoclax]	strong cytotoxic effect	no cytotoxic effect	cytotoxic effects	no cytotoxic activity	exerted effects	–	–	–
Nc1ccn([C@@H]2O[C@H](CO)[C@@H](O)[C@@H]2O)c(=O)n1 [cytarabine, Cytarabine]	–	–	–	–	–	strong cytotoxic effects	moderate cytotoxicity	strong cytotoxic effects
